Source: patent publication US20110105397A1, “METHOD FOR TREATING HEART FAILURE WITH STRESSCOPIN-LIKE PEPTIDES” (priority 2009, published 2011)

System: subjects with heart failure
Assay: Human hemodynamics (impedance cardiography), subjects with stable heart failure, 7.5-hour ascending dose IV infusion
Assay type: in vivo
Details: for Heart Rate CFB / Heart Rate Percent CFB: placebo-subtracted; for Cardiac Index CFB / Cardiac Index Percent CFB / Cardiac Output CFB / Cardiac Output Percent CFB / Diastolic Blood Pressure CFB / Diastolic Blood Pressure Percent CFB / Stroke Volume CFB / Stroke Volume Percent CFB / Systolic Blood Pressure CFB / Systolic Blood Pressure Percent CFB: post hoc analysis
Experimental: Efficacy was based on the pharmacodynamic evaluation of hemodynamics, which was monitored using the noninvasive technique of impedance cardiography. Heart rate values were collected by impedance cardiography measurements. It was noted that the heart rate of subjects receiving placebo were elevated on the day of their infusions, at baseline before the infusion, and for the first 3 to 4 hours after the infusions were started (FIG. 17). Based on this observation, it appeared that there was a potential effect of period on the observed heart rate.
A post hoc graphical analysis of the hemodynamic data was done to adjust for the elevated baseline values seen just before onset of the infusion, to obtain the best estimate of each hemodynamic parameter, and to correct for the effect of period. A post hoc graphic presentation was prepared from the complete (high frequency) dataset. This dataset contains the raw data that were further processed by the vendor (ie, CardioDynamics) and reported only at specific time points.
In this post hoc analysis an extended baseline was used for each value that included all values recorded before initiation of the infusion. Then an average value for each parameter was obtained from the last 30 minutes of each 2.5 hour infusion and was used as the effect in that period of the infused dose. Each value was modified for the effect of period of infusion by subtracting the mean change from baseline seen in placebo subjects dosed in that same period (placebo subtraction). The dose effect was estimated by averaging the values from all subjects who received the same dose after the placebo subtraction.
As may have occurred in healthy subjects, subjects with stable heart failure may have experienced anxiety before the start of the infusion that contributed to this increase in baseline heart rate values.

H-TKFTLSLDVPTNIMNLLFNIAKAKNLRAQAAANAHLMAQI-NH2 [SEQ ID NO: 1, TKFTLSLDVPTNIMNLLFNIAKAKNLRAQAAANAHLMAQI-NH2]
increase in heart rate (highest dose of 54 ng/kg/min): ~10 bpm | Heart Rate CFB (infusion rate 0.3 ng/kg/min): 1.5 bpm | Heart Rate Percent CFB (infusion rate 0.3 ng/kg/min): 3.0% | Cardiac Index CFB (infusion rate 0.3 ng/kg/min): 0.3 L/min/m^2 | Cardiac Index Percent CFB (infusion rate 0.3 ng/kg/min): 13.9% | Cardiac Output CFB (infusion rate 0.3 ng/kg/min): 0.7 L/min | Cardiac Output Percent CFB (infusion rate 0.3 ng/kg/min): 14.2% | Diastolic Blood Pressure CFB (infusion rate 0.3 ng/kg/min): −8.6 mm Hg | Diastolic Blood Pressure Percent CFB (infusion rate 0.3 ng/kg/min): −12.6% | Stroke Volume CFB (infusion rate 0.3 ng/kg/min): 7.6 mL | Stroke Volume Percent CFB (infusion rate 0.3 ng/kg/min): 9.5% | Systolic Blood Pressure CFB (infusion rate 0.3 ng/kg/min): −18.2 mm Hg | Systolic Blood Pressure Percent CFB (infusion rate 0.3 ng/kg/min): −15.8% | Heart Rate CFB (infusion rate 1 ng/kg/min): −0.4 bpm | Heart Rate Percent CFB (infusion rate 1 ng/kg/min): 0.2% | Cardiac Index CFB (infusion rate 1 ng/kg/min): 0.2 L/min/m^2 | Cardiac Index Percent CFB (infusion rate 1 ng/kg/min): 10.1% | Cardiac Output CFB (infusion rate 1 ng/kg/min): 0.5 L/min | Cardiac Output Percent CFB (infusion rate 1 ng/kg/min): 10.2% | Diastolic Blood Pressure CFB (infusion rate 1 ng/kg/min): −6.1 mm Hg | Diastolic Blood Pressure Percent CFB (infusion rate 1 ng/kg/min): −9.1% | Stroke Volume CFB (infusion rate 1 ng/kg/min): 6.6 mL | Stroke Volume Percent CFB (infusion rate 1 ng/kg/min): 9.1% | Systolic Blood Pressure CFB (infusion rate 1 ng/kg/min): −4.9 mm Hg | Systolic Blood Pressure Percent CFB (infusion rate 1 ng/kg/min): −4.7% | Heart Rate CFB (infusion rate 3 ng/kg/min): −1.3 bpm | Heart Rate Percent CFB (infusion rate 3 ng/kg/min): −0.9% | Cardiac Index CFB (infusion rate 3 ng/kg/min): 0.1 L/min/m^2 | Cardiac Index Percent CFB (infusion rate 3 ng/kg/min): 6.9% | Cardiac Output CFB (infusion rate 3 ng/kg/min): 0.3 L/min | Cardiac Output Percent CFB (infusion rate 3 ng/kg/min): 7.0% | Diastolic Blood Pressure CFB (infusion rate 3 ng/kg/min): −8.6 mm Hg | Diastolic Blood Pressure Percent CFB (infusion rate 3 ng/kg/min): −13.0% | Stroke Volume CFB (infusion rate 3 ng/kg/min): 4.8 mL | Stroke Volume Percent CFB (infusion rate 3 ng/kg/min): 7.3% | Systolic Blood Pressure CFB (infusion rate 3 ng/kg/min): −9.5 mm Hg | Systolic Blood Pressure Percent CFB (infusion rate 3 ng/kg/min): −9.2% | Heart Rate CFB (infusion rate 9 ng/kg/min): 0.2 bpm | Heart Rate Percent CFB (infusion rate 9 ng/kg/min): 1.5% | Cardiac Index CFB (infusion rate 9 ng/kg/min): 0.2 L/min/m^2 | Cardiac Index Percent CFB (infusion rate 9 ng/kg/min): 9.1% | Cardiac Output CFB (infusion rate 9 ng/kg/min): 0.5 L/min | Cardiac Output Percent CFB (infusion rate 9 ng/kg/min): 9.2% | Diastolic Blood Pressure CFB (infusion rate 9 ng/kg/min): −8.6 mm Hg | Diastolic Blood Pressure Percent CFB (infusion rate 9 ng/kg/min): −11.9% | Stroke Volume CFB (infusion rate 9 ng/kg/min): 5.9 mL | Stroke Volume Percent CFB (infusion rate 9 ng/kg/min): 7.6% | Systolic Blood Pressure CFB (infusion rate 9 ng/kg/min): −10.6 mm Hg | Systolic Blood Pressure Percent CFB (infusion rate 9 ng/kg/min): −9.4% | Heart Rate CFB (infusion rate 18 ng/kg/min): 0.8 bpm | Heart Rate Percent CFB (infusion rate 18 ng/kg/min): 2.5% | Cardiac Index CFB (infusion rate 18 ng/kg/min): 0.4 L/min/m^2 | Cardiac Index Percent CFB (infusion rate 18 ng/kg/min): 14.5% | Cardiac Output CFB (infusion rate 18 ng/kg/min): 0.8 L/min | Cardiac Output Percent CFB (infusion rate 18 ng/kg/min): 15.5% | Diastolic Blood Pressure CFB (infusion rate 18 ng/kg/min): −7.6 mm Hg | Diastolic Blood Pressure Percent CFB (infusion rate 18 ng/kg/min): −11.4% | Stroke Volume CFB (infusion rate 18 ng/kg/min): 9.3 mL | Stroke Volume Percent CFB (infusion rate 18 ng/kg/min): 12.9% | Systolic Blood Pressure CFB (infusion rate 18 ng/kg/min): −8.8 mm Hg | Systolic Blood Pressure Percent CFB (infusion rate 18 ng/kg/min): −8.7% | Heart Rate CFB (infusion rate 36 ng/kg/min): 3.6 bpm | Heart Rate Percent CFB (infusion rate 36 ng/kg/min): 6.3% | Cardiac Index CFB (infusion rate 36 ng/kg/min): 0.3 L/min/m^2 | Cardiac Index Percent CFB (infusion rate 36 ng/kg/min): 12.4% | Cardiac Output CFB (infusion rate 36 ng/kg/min): 0.7 L/min | Cardiac Output Percent CFB (infusion rate 36 ng/kg/min): 12.4% | Diastolic Blood Pressure CFB (infusion rate 36 ng/kg/min): −12.5 mm Hg | Diastolic Blood Pressure Percent CFB (infusion rate 36 ng/kg/min): −18.5% | Stroke Volume CFB (infusion rate 36 ng/kg/min): 4.2 mL | Stroke Volume Percent CFB (infusion rate 36 ng/kg/min): 6.0% | Systolic Blood Pressure CFB (infusion rate 36 ng/kg/min): −16.4 mm Hg | Systolic Blood Pressure Percent CFB (infusion rate 36 ng/kg/min): −14.9% | Heart Rate CFB (infusion rate 45 ng/kg/min): 3.8 bpm | Heart Rate Percent CFB (infusion rate 45 ng/kg/min): 7.5% | Cardiac Index CFB (infusion rate 45 ng/kg/min): 0.3 L/min/m^2 | Cardiac Index Percent CFB (infusion rate 45 ng/kg/min): 12.6% | Cardiac Output CFB (infusion rate 45 ng/kg/min): 0.7 L/min | Cardiac Output Percent CFB (infusion rate 45 ng/kg/min): 13.3% | Diastolic Blood Pressure CFB (infusion rate 45 ng/kg/min): −12.6 mm Hg | Diastolic Blood Pressure Percent CFB (infusion rate 45 ng/kg/min): −19.0% | Stroke Volume CFB (infusion rate 45 ng/kg/min): 3.3 mL | Stroke Volume Percent CFB (infusion rate 45 ng/kg/min): 5.4% | Systolic Blood Pressure CFB (infusion rate 45 ng/kg/min): −12.0 mm Hg | Systolic Blood Pressure Percent CFB (infusion rate 45 ng/kg/min): −11.7% | Heart Rate CFB (infusion rate 54 ng/kg/min): 7.0 bpm | Heart Rate Percent CFB (infusion rate 54 ng/kg/min): 11.5% | Cardiac Index CFB (infusion rate 54 ng/kg/min): 0.2 L/min/m^2 | Cardiac Index Percent CFB (infusion rate 54 ng/kg/min): 7.5% | Cardiac Output CFB (infusion rate 54 ng/kg/min): 0.4 L/min | Cardiac Output Percent CFB (infusion rate 54 ng/kg/min): 11.5% | Diastolic Blood Pressure CFB (infusion rate 54 ng/kg/min): −14.4 mm Hg | Diastolic Blood Pressure Percent CFB (infusion rate 54 ng/kg/min): −23.9% | Stroke Volume CFB (infusion rate 54 ng/kg/min): -2.5 mL | Stroke Volume Percent CFB (infusion rate 54 ng/kg/min): 0.5% | Systolic Blood Pressure CFB (infusion rate 54 ng/kg/min): −18.8 mm Hg | Systolic Blood Pressure Percent CFB (infusion rate 54 ng/kg/min): −21.4%
